≈ marks a conversion by molar mass, not a printed value. Calls of active or inactive are those of the source. The rule behind the calls is not given here.
Assays:
[1] = Octanol-water distribution coefficient, log D of the compound at pH 7.4; assay type: physicochemical
[2] = target: Sigma non-opioid intracellular receptor 1 (Homo sapiens, UniProt Q99720); experiment: Displacement of [3H]-pentazocine from human recombinant sigma-1 receptor expressed in CHO cells after 180 mins by beta counting analysis; assay type: cell-based
Sigma non-opioid intracellular receptor 1, sequence (Q99720 whole entry): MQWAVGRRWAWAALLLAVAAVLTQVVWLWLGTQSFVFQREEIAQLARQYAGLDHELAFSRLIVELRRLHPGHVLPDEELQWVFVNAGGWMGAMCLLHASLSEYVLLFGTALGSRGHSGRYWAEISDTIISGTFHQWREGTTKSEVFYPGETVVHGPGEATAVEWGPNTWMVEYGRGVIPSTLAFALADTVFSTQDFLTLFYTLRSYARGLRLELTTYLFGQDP

[3] = Dissociation constant, pKa of the compound; assay type: physicochemical
Rattus norvegicus [4] = species on record: Rattus norvegicus; experiment: Displacement of [3H]1,3-di-O-tolylguanidine from sigma-2 receptor in rat cerebral cortex at 10 uM relative to control; assay type: tissue-based
[5] = Intrinsic clearance in rat liver microsomes measured per mg of protein; assay type: ADME; conditions: read-out: CLH
[6] = target: 5-hydroxytryptamine receptor 2A (Homo sapiens) (UniProt P28223); experiment: Binding affinity to 5HT-2a receptor (unknown origin) at 10 uM by displacement assay relative to control
5-hydroxytryptamine receptor 2A (Homo sapiens), sequence (P28223 whole entry): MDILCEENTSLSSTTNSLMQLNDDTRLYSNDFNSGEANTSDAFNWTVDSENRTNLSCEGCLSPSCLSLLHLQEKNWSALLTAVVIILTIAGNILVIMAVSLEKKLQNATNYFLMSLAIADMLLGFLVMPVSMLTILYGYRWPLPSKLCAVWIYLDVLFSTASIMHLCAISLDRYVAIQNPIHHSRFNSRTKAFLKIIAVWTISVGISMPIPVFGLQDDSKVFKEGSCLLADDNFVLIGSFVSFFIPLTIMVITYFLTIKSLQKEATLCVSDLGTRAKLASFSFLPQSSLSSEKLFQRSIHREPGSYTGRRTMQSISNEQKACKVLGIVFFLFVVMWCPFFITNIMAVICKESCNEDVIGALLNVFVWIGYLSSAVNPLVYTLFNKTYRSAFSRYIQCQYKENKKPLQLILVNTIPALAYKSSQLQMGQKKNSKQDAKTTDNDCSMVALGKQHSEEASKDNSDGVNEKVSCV

[7] = target: D(4) dopamine receptor (Homo sapiens) (UniProt P21917); experiment: Binding affinity to dopamine D4 receptor (unknown origin) at 10 uM by displacement assay relative to control
D(4) dopamine receptor (Homo sapiens), sequence (P21917 whole entry): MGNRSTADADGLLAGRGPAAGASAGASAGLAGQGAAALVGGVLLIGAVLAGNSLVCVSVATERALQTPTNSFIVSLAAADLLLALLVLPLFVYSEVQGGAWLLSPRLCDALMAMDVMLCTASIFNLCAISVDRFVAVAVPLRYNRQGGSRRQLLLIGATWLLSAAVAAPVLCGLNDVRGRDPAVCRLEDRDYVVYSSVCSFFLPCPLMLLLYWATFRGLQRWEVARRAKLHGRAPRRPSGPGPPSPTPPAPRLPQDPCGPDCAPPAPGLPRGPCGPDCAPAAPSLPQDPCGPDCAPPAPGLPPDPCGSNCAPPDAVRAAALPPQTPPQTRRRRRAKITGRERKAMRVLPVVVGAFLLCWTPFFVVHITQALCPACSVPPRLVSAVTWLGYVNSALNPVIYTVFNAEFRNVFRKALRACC

[8] = target: 5-hydroxytryptamine receptor 6 (Homo sapiens) (UniProt P50406); experiment: Binding affinity to 5HT-6 receptor (unknown origin) at 10 uM by displacement assay relative to control
[9] = target: Sodium-dependent noradrenaline transporter (Homo sapiens) (UniProt P23975); experiment: Binding affinity to NE transporter (unknown origin) at 10 uM by displacement assay relative to control
Sodium-dependent noradrenaline transporter (Homo sapiens), sequence (P23975 whole entry): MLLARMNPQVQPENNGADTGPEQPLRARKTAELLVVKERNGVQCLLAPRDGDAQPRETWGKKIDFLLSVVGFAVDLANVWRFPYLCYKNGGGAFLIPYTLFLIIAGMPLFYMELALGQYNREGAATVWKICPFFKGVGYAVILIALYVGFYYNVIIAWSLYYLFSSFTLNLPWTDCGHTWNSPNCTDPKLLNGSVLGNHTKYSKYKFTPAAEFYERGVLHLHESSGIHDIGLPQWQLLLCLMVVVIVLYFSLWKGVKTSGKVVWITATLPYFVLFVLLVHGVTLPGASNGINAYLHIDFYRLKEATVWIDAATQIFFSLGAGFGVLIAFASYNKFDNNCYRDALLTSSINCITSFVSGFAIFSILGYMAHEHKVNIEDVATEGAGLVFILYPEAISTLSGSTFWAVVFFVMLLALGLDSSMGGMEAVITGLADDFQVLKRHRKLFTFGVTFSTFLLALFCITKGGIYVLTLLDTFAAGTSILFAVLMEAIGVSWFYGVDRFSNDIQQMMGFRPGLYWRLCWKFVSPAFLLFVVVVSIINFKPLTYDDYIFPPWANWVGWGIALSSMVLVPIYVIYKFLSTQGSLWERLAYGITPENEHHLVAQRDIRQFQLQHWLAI

[10] = target: Sodium-dependent dopamine transporter (Homo sapiens) (UniProt Q01959); experiment: Binding affinity to DA transporter (unknown origin) at 10 uM by displacement assay relative to control
Sodium-dependent dopamine transporter (Homo sapiens), sequence (Q01959 whole entry): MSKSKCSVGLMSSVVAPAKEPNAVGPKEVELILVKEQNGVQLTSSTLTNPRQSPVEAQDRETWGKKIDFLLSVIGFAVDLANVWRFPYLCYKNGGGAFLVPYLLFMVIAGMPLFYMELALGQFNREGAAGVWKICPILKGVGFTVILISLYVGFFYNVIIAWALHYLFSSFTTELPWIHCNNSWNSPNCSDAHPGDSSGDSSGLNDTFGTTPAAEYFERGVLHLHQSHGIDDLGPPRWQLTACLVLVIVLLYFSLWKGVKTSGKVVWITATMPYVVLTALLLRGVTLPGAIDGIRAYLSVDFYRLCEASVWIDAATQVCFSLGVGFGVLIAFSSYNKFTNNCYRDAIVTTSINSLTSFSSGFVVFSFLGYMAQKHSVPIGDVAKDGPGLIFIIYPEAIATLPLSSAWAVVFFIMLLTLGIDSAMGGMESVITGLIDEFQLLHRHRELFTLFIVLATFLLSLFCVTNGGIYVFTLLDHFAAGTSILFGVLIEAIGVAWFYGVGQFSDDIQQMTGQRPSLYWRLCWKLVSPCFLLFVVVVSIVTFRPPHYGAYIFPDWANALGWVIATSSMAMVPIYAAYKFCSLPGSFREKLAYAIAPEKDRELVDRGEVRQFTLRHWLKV

[11] = target: Mu-type opioid receptor (Homo sapiens) (UniProt P35372); experiment: Binding affinity to mu opioid receptor (unknown origin) at 10 uM by displacement assay relative to control
Mu-type opioid receptor (Homo sapiens), sequence (P35372 whole entry): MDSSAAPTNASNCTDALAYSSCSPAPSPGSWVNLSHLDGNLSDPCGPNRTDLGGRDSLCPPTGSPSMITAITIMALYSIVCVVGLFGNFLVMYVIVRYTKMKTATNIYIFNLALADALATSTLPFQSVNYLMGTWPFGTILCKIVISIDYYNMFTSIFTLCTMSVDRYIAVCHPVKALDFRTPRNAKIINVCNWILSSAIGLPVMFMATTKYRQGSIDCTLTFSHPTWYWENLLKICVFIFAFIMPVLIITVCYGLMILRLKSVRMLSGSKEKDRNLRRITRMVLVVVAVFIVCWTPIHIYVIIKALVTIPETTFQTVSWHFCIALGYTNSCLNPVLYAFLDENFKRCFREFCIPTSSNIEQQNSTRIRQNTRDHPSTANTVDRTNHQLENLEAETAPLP

[12] = target: 5-hydroxytryptamine receptor 7 (Homo sapiens) (UniProt P34969); experiment: Binding affinity to 5HT-7 receptor (unknown origin) at 10 uM by displacement assay relative to control
[13] = target: Kappa-type opioid receptor (Homo sapiens) (UniProt P41145); experiment: Binding affinity to kappa opioid receptor (unknown origin) at 10 uM by displacement assay relative to control
Kappa-type opioid receptor (Homo sapiens), sequence (P41145 whole entry): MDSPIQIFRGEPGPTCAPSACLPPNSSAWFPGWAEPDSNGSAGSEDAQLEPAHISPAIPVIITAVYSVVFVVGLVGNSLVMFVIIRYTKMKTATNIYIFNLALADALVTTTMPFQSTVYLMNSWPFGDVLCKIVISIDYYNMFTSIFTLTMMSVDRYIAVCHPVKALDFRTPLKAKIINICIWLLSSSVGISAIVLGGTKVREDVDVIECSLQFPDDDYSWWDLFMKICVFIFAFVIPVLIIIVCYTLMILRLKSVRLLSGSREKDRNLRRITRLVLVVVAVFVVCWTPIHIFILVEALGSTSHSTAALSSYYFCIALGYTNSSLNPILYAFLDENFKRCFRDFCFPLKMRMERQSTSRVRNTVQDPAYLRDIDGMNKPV

[14] = target: Adrenergic receptor alpha-1 (Homo sapiens) (UniProt P35348+P25100+P35368); experiment: Binding affinity to adrenergic alpha-1 receptor (unknown origin) at 10 uM by displacement assay relative to control; assay type: protein assay
[15] = target: Alpha-2B adrenergic receptor (Homo sapiens) (UniProt P18089); experiment: Binding affinity to adrenergic alpha-2b receptor (unknown origin) at 10 uM by displacement assay relative to control
Rattus norvegicus [16] = species on record: Rattus norvegicus; experiment: Displacement of [3H]1,3-di-O-tolylguanidine from sigma-2 receptor in rat cerebral cortex; assay type: tissue-based; conditions: concentration not given here
[17] = target: T1, Alpha-2C adrenergic receptor (Homo sapiens) (UniProt P18825); experiment: Binding affinity to adrenergic alpha-2c receptor (unknown origin) at 10 uM by displacement assay relative to control
T1 sequence (whole entry): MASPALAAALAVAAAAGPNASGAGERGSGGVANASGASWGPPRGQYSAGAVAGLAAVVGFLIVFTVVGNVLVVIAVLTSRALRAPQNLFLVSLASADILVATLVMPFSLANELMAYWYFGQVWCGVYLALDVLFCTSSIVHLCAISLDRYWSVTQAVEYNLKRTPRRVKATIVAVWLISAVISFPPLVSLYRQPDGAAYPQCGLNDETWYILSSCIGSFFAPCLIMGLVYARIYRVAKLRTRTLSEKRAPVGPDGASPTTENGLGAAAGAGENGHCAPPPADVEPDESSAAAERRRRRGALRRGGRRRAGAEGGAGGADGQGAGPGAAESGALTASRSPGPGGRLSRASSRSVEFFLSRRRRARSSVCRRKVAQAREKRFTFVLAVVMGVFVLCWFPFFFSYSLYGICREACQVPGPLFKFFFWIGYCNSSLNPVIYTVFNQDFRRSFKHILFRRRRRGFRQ

Homo sapiens [18] = species on record: Homo sapiens; experiment: Binding affinity to […] channel (unknown origin) at 10 uM by displacement assay relative to control
Homo sapiens [19] = species on record: Homo sapiens; experiment: Binding affinity to Ca2+ channel (unknown origin) at 10 uM by displacement assay relative to control
[20] = target: Histamine H1 receptor (Homo sapiens) (UniProt P35367); experiment: Binding affinity to histamine H1 receptor (unknown origin) at 10 uM by displacement assay relative to control
Histamine H1 receptor (Homo sapiens), sequence (P35367 whole entry): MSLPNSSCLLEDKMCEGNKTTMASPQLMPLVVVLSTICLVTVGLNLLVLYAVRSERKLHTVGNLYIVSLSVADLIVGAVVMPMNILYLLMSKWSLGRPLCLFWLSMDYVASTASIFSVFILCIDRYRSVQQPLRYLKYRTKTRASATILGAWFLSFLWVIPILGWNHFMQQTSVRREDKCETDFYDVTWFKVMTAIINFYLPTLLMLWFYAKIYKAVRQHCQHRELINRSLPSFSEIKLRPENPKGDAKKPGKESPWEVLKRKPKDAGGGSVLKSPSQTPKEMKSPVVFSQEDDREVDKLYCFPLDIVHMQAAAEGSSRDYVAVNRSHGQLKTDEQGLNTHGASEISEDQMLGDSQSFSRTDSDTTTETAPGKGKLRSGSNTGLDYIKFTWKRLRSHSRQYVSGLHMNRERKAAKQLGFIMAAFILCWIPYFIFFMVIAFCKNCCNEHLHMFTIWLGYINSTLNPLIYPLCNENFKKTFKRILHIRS

[21] = target: 5-hydroxytryptamine receptor 1A (Homo sapiens) (UniProt P08908); experiment: Binding affinity to 5-HT1a receptor (unknown origin) at 10 uM by displacement assay relative to control
[22] = target: Muscarinic acetylcholine receptor (Rattus norvegicus) (UniProt P08482+P08483+P08485+P08911+P10980); experiment: Displacement of [3H]-QNB from muscarinic receptor in rat cerebral cortex at 10 uM relative to control; assay type: tissue-based
[23] = target: Opioid receptor (Rattus norvegicus) (UniProt P33533+P34975+P33535); experiment: Displacement of [3H]-naloxone from opioid receptor in rat cerebral cortex at 10 uM relative to control; assay type: tissue-based
[24] = target: Histamine H3 receptor (Homo sapiens) (UniProt Q9Y5N1); experiment: Binding affinity to histamine H3 receptor (unknown origin) at 10 uM by displacement assay relative to control
Histamine H3 receptor (Homo sapiens), sequence (Q9Y5N1 whole entry): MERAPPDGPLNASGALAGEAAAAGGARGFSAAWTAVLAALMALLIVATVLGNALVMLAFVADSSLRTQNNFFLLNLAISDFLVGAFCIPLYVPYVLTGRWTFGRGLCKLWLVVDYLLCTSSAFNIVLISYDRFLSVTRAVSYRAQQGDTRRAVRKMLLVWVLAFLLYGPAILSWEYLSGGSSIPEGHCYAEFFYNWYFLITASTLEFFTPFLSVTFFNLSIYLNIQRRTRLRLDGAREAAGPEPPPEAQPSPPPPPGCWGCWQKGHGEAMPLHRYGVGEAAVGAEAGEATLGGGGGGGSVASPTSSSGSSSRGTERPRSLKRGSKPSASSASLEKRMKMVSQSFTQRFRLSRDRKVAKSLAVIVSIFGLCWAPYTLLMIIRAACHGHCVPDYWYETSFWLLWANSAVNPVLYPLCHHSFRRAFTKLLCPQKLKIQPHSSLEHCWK

[25] = target: Sodium-dependent serotonin transporter (Homo sapiens) (UniProt P31645); experiment: Binding affinity to 5HT transporter (unknown origin) at 10 uM by displacement assay relative to control
Sodium-dependent serotonin transporter (Homo sapiens), sequence (P31645 whole entry, looked up): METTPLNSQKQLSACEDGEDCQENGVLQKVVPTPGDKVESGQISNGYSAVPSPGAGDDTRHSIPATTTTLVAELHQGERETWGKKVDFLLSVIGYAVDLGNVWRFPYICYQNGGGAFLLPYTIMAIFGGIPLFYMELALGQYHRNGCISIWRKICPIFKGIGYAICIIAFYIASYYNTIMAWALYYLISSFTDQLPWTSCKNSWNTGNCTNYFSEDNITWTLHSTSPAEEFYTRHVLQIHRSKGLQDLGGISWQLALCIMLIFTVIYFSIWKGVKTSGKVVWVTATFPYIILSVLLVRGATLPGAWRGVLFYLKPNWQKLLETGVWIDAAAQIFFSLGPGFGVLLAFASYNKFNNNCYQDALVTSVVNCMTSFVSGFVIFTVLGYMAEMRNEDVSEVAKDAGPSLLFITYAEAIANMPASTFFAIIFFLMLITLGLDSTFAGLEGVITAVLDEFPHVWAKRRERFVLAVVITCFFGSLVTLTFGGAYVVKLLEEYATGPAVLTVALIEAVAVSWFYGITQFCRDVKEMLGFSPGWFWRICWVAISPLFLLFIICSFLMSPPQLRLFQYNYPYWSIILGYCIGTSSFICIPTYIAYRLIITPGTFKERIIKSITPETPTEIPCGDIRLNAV

[26] = target: D(3) dopamine receptor (Homo sapiens) (UniProt P35462); experiment: Binding affinity to dopamine D3 receptor (unknown origin) at 10 uM by displacement assay relative to control
[27] = target: D(2) dopamine receptor (Homo sapiens) (UniProt P14416); experiment: Binding affinity to dopamine D2 receptor (unknown origin) at 10 uM by displacement assay relative to control
Mus musculus [28] = experiment: Antiamnesic activity in C57BL6/J mouse assessed as reduction of scopolamine-induced memory deficit at 1 to 23 mg/kg, ip administered 40 mins prior to acquisition trial by two-trial object recognition test; assay type: functional, organism-based
[29] = Ratio of drug level in brain to plasma in C57BL6/J mouse at 1 mg/kg, ip measured at 40 mins; assay type: ADME, organism-based; parameters: dose 1 mg/kg, route intraperitoneal; conditions: brain and plasma, read-out: BPR
[30] = Solubility of the compound at pH 7.4; assay type: physicochemical; conditions: buffer
[31] = Intrinsic clearance in mouse liver microsomes measured per mg of protein; assay type: ADME; conditions: read-out: CLH
[32] = Intrinsic clearance in human liver microsomes measured per mg of protein; assay type: ADME; conditions: read-out: CLH
[33] = Apparent permeability across apical to basolateral side in human Caco2 cells at 20 uM measured up to 3 hrs; assay type: ADME, cell-based; conditions: Caco-2
[34] = target: Acetylcholinesterase (Homo sapiens) (UniProt P22303); experiment: Binding affinity to AChE (unknown origin) at 10 uM by displacement assay relative to control
Mus musculus [35] = experiment: Antiamnesic activity in C57BL6/J mouse assessed as reduction of scopolamine-induced memory deficit at 0.03 to 1 mg/kg, ip administered 40 mins prior to acquisition trial by two-trial object recognition test; assay type: functional, organism-based

Row | Structure (SMILES) | logD ([1]; read-out: logD) | Ki [2] [nM] | pKa [3] | microsomal CLint [5] [µL/min/mg] | inhibition [6] [%] | also measured
1 | O=C(NC1CCC(N2CCCCC2)CC1)[C@H]1C[C@@H]1c1ccccc1 (mixture of isomers) | 0.9 | 1260 | 9.6 | – | – | –
2 | O=C([C@H]1C[C@@H]1c1ccc(F)cc1)N1CCC(N2CCCCC2)CC1 (racemic) | – | 100 | – | – | – | inhibition (Rattus norvegicus [4]): 61%
3 | O=C(NCCN1CCN(C(=O)c2c(F)cccc2Cl)CC1)[C@H]1C[C@@H]1c1ccccc1 (racemic) | 2.3 | 631 | – | 81 | > 90 | –
4 | O=C([C@H]1C[C@@H]1c1ccccc1)N1CCC(N2CCCC2)CC1 (racemic) | 0.7 | 200 | 9.3 | 25 | – | –
5 | O=C(NCCCNC1CCCCC1)[C@H]1C[C@@H]1c1ccccc1 (stereo in doubt; (-)-1) [listing 1 of 2 here] | 1.1 | 158 | – | – | – | –
6 | O=C(NCCN1CCN(Cc2ccccc2)CC1)[C@H]1C[C@@H]1c1ccccc1 (racemic) | 2.8 | 15.8 | – | 122 | 50 | inhibition [7]: > 90%; inhibition [8]: 50%; inhibition [9]: 50%; inhibition [10]: 50%; inhibition [11]: 50%; inhibition [12]: 50%; inhibition [13]: 50%
7 | O=C(NCCN1CCCC1)[C@H]1C[C@@H]1c1ccccc1 (racemic) | 0.9 | 63.1 | 9.2 | – | > 90 | –
8 | O=C(NCCCNC1CCCCC1)[C@H]1C[C@@H]1c1ccccc1 (stereo in doubt; (+)-1) [listing 1 of 2 here] | – | – | – | – | > 90 | inhibition [14]: 50%; inhibition [15]: 50%; inhibition (Rattus norvegicus [16]): 6.6%; inhibition [17]: 50%; inhibition (Homo sapiens [18]): 50%; inhibition (Homo sapiens [19]): 50%
9 | CC(C)N(CCNC(=O)[C@H]1C[C@@H]1c1ccccc1)C(C)C (racemic) | 1 | 63.1 | 9.7 | > 300 | 50 | –
10 | O=C(NCCN1CCN(Cc2ccc(Cl)c(Cl)c2)CC1)[C@H]1C[C@@H]1c1ccccc1 (racemic) | > 4 | 10 | – | 200 | > 90 | inhibition [20]: 50%; inhibition (Homo sapiens [18]): 50%
11 | O=C([C@H]1C[C@@H]1c1ccc(F)cc1)N1CCC(CNCC2CCCCC2)CC1 (racemic) | – | 79.4 | – | 17 | – | inhibition [21]: 50%; inhibition (Homo sapiens [18]): 50%; inhibition [22]: 50%
12 | O=C(NCCCNC1CCCCC1)[C@H]1C[C@@H]1c1ccccc1 (racemic) [listing 1 of 2 here] | – | 200 | 10.1 | – | – | logD [1]: 1.3
13 | O=C(NCCCNC1CCCCC1)[C@H]1C[C@@H]1c1ccccc1 (stereo in doubt; (-)-1) [listing 2 of 2 here] | – | – | – | – | – | inhibition (Homo sapiens [18]): 50%
14 | CCN(CC)CCNC(=O)[C@H]1C[C@@H]1c1ccccc1 (racemic) | 0.6 | 126 | 8.9 | – | 50 | inhibition [23]: > 90%
15 | COc1ccc(CCN2CCN(CCCc3ccccc3)CC2)cc1OC | – | – | – | – | 50 | inhibition [7]: 50%; inhibition [14]: > 90%; inhibition [24]: 50%; inhibition [9]: > 90%; inhibition (Rattus norvegicus [4]): 99%; inhibition [25]: 50%; inhibition [10]: 50%; inhibition [26]: 50%; inhibition [17]: 50%; inhibition [27]: 50%
16 | O=C([C@H]1C[C@@H]1c1ccccc1)N1CCC(N2CCCCC2)CC1 (racemic) | 1.1 | 79.4 | 9.3 | 32 | – | Activity (Mus musculus [28]): Active; inhibition [24]: 50%; Kp at 40 min [29]: 13.5; solubility [30]: 1100 µg/mL (≈ 3.52 mM); microsomal CLint [31]: 50 µL/min/mg; inhibition (Rattus norvegicus [4]): 50%; microsomal CLint [32]: 56 µL/min/mg; Papp A→B at 3 h, 20 µM [33]: 16.6 ×10⁻⁶ cm/s; inhibition (Homo sapiens [19]): 50%
17 | O=C(NCCN1CCN(Cc2c(F)cccc2Cl)CC1)[C@H]1C[C@@H]1c1ccccc1 (racemic) | 3.7 | 25.1 | – | 283 | – | –
18 | C=CCN1CC[C@]2(C)c3cc(O)ccc3C[C@@H]1[C@@H]2C | – | 158 | – | 313 | – | inhibition [34]: 50%; Kp at 40 min [29]: 5.64; microsomal CLint [31]: 17 µL/min/mg; inhibition (Rattus norvegicus [4]): 29%; Activity (Mus musculus [35]): Active; inhibition [11]: 50%; inhibition [13]: > 90%; Papp A→B at 3 h, 20 µM [33]: 20.2 ×10⁻⁶ cm/s
19 | O=C(NCCCNC1CCCCC1)[C@H]1C[C@@H]1c1ccccc1 (racemic) [listing 2 of 2 here] | – | – | – | – | 50 | inhibition [14]: 50%; inhibition (Homo sapiens [19]): > 90%
20 | CN(C)CC(C)(C)CNC(=O)[C@H]1C[C@@H]1c1ccccc1 (racemic) | 0.8 | 398 | 8.9 | – | – | –
21 | O=C(NCCCN1CCN(Cc2c(F)cccc2Cl)CC1)[C@H]1C[C@@H]1c1ccccc1 (racemic) | 3.5 | 25.1 | – | 305 | > 90 | inhibition [14]: 50%; inhibition [20]: 50%; inhibition [17]: 50%; inhibition (Homo sapiens [19]): > 90%
22 | O=C([C@H]1C[C@@H]1c1ccccc1)N1CCN(c2ccccc2)CC1 (racemic) | 3.8 | 1260 | < 2.5 | – | – | –
23 | O=C(NCCCNC1CCCCC1)[C@H]1C[C@@H]1c1ccccc1 (stereo in doubt; (+)-1) [listing 2 of 2 here] | – | 158 | – | 147 | – | –
